The assay concerns MV-4-11 cells. As to the kind of experiment: Gene expression microarray analysis (Affymetrix PrimeView) and GSEA. In kind it is cell-based, human. On the set-up: RFU PODN (11730768_x_at) / Fold change /veh PODN (11730768_x_at) / RFU LINC00158 (11744669_a_at) / Fold change /veh LINC00158 (11744669_a_at) / RFU DUSP10 (11751237_a_at) / Fold change /veh DUSP10 (11751237_a_at) / RFU ID3 (11757404_x_at) / Fold change /veh ID3 (11757404_x_at) / RFU PLEKHG5 (11737974_s_at) / Fold change /veh PLEKHG5 (11737974_s_at) / RFU LRRC4B (11730491_at) / Fold change /veh LRRC4B (11730491_at) / RFU GIMAP4 (11747438_a_at) / Fold change /veh GIMAP4 (11747438_a_at) / RFU KRT8 (11758183_x_at) / Fold change /veh KRT8 (11758183_x_at) / RFU CNN1 (11734310_a_at) / Fold change /veh CNN1 (11734310_a_at) / RFU VPS37D (11726825_at) / Fold change /veh VPS37D (11726825_at) / RFU C10orf10 (11716522_x_at) / Fold change /veh C10orf10 (11716522_x_at) / RFU KIR2DL2 /// KIR2DL4 /// KIR2DL5A /// KIR2DL5B /// KIR2DS1 /// KIR2DS2 /// KIR2DS3 /// KIR2DS4 /// KIR3DL3 /// KIR3DL3 /// KIR3DS1 (11738374_at) / Fold change /veh KIR2DL2 /// KIR2DL4 /// KIR2DL5A /// KIR2DL5B /// KIR2DS1 /// KIR2DS2 /// KIR2DS3 /// KIR2DS4 /// KIR3DL3 /// KIR3DL3 /// KIR3DS1 (11738374_at) / RFU C1QL1 (11718748_at) / Fold change /veh C1QL1 (11718748_at) / RFU TMPRSS4 (11747572_a_at) / Fold change /veh TMPRSS4 (11747572_a_at) / RFU HAMP (11756126_x_at) / Fold change /veh HAMP (11756126_x_at) / RFU RNFT2 (11725882_a_at) / Fold change /veh RNFT2 (11725882_a_at) / RFU NR4A2 (11747474_a_at) / Fold change /veh NR4A2 (11747474_a_at) / RFU ABCC12 (11746883_a_at) / Fold change /veh ABCC12 (11746883_a_at) / RFU TMEM136 (11760407_x_at) / Fold change /veh TMEM136 (11760407_x_at) / RFU CLDN22 /// WWC2 (11732394_at) / Fold change /veh CLDN22 /// WWC2 (11732394_at) / RFU HLA-DPB1 (11760878_x_at) / Fold change /veh HLA-DPB1 (11760878_x_at) / RFU SPINT1 (11716480_a_at) / Fold change /veh SPINT1 (11716480_a_at) / RFU GAP43 (11754022_s_at) / Fold change /veh GAP43 (11754022_s_at) / RFU A4GNT (11735810_at) / Fold change /veh A4GNT (11735810_at) / RFU PRB3 (11715151_x_at) / Fold change /veh PRB3 (11715151_x_at) / RFU TUBB4B (11761932_at) / Fold change /veh TUBB4B (11761932_at) / RFU CAPN14 (11732068_a_at) / Fold change /veh CAPN14 (11732068_a_at) / RFU TMCC2 (11721928_a_at) / Fold change /veh TMCC2 (11721928_a_at) / RFU IRGQ (11745062_a_at) / Fold change /veh IRGQ (11745062_a_at) / RFU FAM174B (11720279_a_at) / Fold change /veh FAM174B (11720279_a_at) / RFU TMPRSS4 (11748680_a_at) / Fold change /veh TMPRSS4 (11748680_a_at) / RFU FAM212B (11763350_a_at) / Fold change /veh FAM212B (11763350_a_at) / RFU PLEKHG5 (11743358_a_at) / Fold change /veh PLEKHG5 (11743358_a_at) / RFU ZSCAN30 (11745921_a_at) / Fold change /veh ZSCAN30 (11745921_a_at) / RFU CMKLR1 (11741424_a_at) / Fold change /veh CMKLR1 (11741424_a_at) / RFU LOC101060620 /// MAPK8IP1 (11723275_at) / Fold change /veh LOC101060620 /// MAPK8IP1 (11723275_at) / RFU SPTSSB (11747773_x_at) / Fold change /veh SPTSSB (11747773_x_at) / RFU PRSS12 (11739890_at) / Fold change /veh PRSS12 (11739890_at) / RFU BIN1 (11741810_x_at) / Fold change /veh BIN1 (11741810_x_at) / RFU WNT11 (11732464_a_at) / Fold change /veh WNT11 (11732464_a_at) / RFU C10orf10 (11716521_a_at) / Fold change /veh C10orf10 (11716521_a_at) / RFU C5orf56 (11738089_at) / Fold change /veh C5orf56 (11738089_at) / RFU CYB561 (11721691_x_at) / Fold change /veh CYB561 (11721691_x_at) / RFU ANKRD19P (11752326_a_at) / Fold change /veh ANKRD19P (11752326_a_at) / RFU OR2T12 /// OR2T33 /// OR2T8 (11738714_s_at) / Fold change /veh OR2T12 /// OR2T33 /// OR2T8 (11738714_s_at) / RFU VCAN (11748164_a_at) / Fold change /veh VCAN (11748164_a_at) / RFU JSRP1 (11732532_at) / Fold change /veh JSRP1 (11732532_at) / RFU KRTAP10-11 (11738290_x_at) / Fold change /veh KRTAP10-11 (11738290_x_at) / RFU MYO3A (11730013_a_at) / Fold change /veh MYO3A (11730013_a_at) / RFU EBF3 (11725865_a_at) / Fold change /veh EBF3 (11725865_a_at) / RFU CAMK2N1 (11719241_x_at) / Fold change /veh CAMK2N1 (11719241_x_at) / RFU C5orf56 (11738088_a_at) / Fold change /veh C5orf56 (11738088_a_at) / RFU OLFML3 (11715873_a_at) / Fold change /veh OLFML3 (11715873_a_at) / RFU LOC100653217 /// NTM (11731650_a_at) / Fold change /veh LOC100653217 /// NTM (11731650_a_at) / RFU MAPK11 (11762145_a_at) / Fold change /veh MAPK11 (11762145_a_at) / RFU FIZ1 (11724087_x_at) / Fold change /veh FIZ1 (11724087_x_at) / RFU OASL (11726364_x_at) / Fold change /veh OASL (11726364_x_at) / RFU SOX15 (11748057_x_at) / Fold change /veh SOX15 (11748057_x_at) / RFU CD79A (11719716_a_at) / Fold change /veh CD79A (11719716_a_at) / RFU HIST1H1D (11736915_at) / Fold change /veh HIST1H1D (11736915_at) / RFU CASKIN2 (11723855_a_at) / Fold change /veh CASKIN2 (11723855_a_at) / RFU LOC730098 (11760151_x_at) / Fold change /veh LOC730098 (11760151_x_at) / RFU OR4N2 (11742367_at) / Fold change /veh OR4N2 (11742367_at) / RFU PRRT2 (11749266_a_at) / Fold change /veh PRRT2 (11749266_a_at) / RFU SNX32 (11753110_a_at) / Fold change /veh SNX32 (11753110_a_at) / RFU CDHR5 (11726645_a_at) / Fold change /veh CDHR5 (11726645_a_at) / RFU RCAN1 (11760418_a_at) / Fold change /veh RCAN1 (11760418_a_at) / RFU FAM167A (11723789_a_at) / Fold change /veh FAM167A (11723789_a_at) / RFU FAM26E (11764081_at) / Fold change /veh FAM26E (11764081_at) / RFU ISYNA1 (11749810_s_at) / Fold change /veh ISYNA1 (11749810_s_at) / RFU ACY1 (11761880_at) / Fold change /veh ACY1 (11761880_at) / RFU 11764098_at / Fold change /veh 11764098_at / RFU SAMD14 (11745864_x_at) / Fold change /veh SAMD14 (11745864_x_at) / RFU NPB (11741838_a_at) / Fold change /veh NPB (11741838_a_at) / RFU TMPRSS6 (11731388_a_at) / Fold change /veh TMPRSS6 (11731388_a_at) / RFU KRTAP10-2 (11738614_at) / Fold change /veh KRTAP10-2 (11738614_at) / RFU ARHGAP8 /// PRR5-ARHGAP8 (11727945_x_at) / Fold change /veh ARHGAP8 /// PRR5-ARHGAP8 (11727945_x_at) / RFU KRTAP5-7 /// NADSYN1 (11734609_at) / Fold change /veh KRTAP5-7 /// NADSYN1 (11734609_at) / RFU RASL12 (11751679_a_at) / Fold change /veh RASL12 (11751679_a_at) / RFU CDKN2B (11736163_a_at) / Fold change /veh CDKN2B (11736163_a_at) / RFU PRF1 (11729649_at) / Fold change /veh PRF1 (11729649_at) / RFU, ZNF638 /// ZNF638-IT1 / Fold change vs veh, ZNF638 /// ZNF638-IT1 / RFU, PANK3 / Fold change vs veh, PANK3 / RFU, SH3YL1 / Fold change vs veh, SH3YL1 / RFU, ZEB2 / Fold change vs veh, ZEB2 / RFU, NRIP1 / Fold change vs veh, NRIP1 / RFU, PTTG1IP / Fold change vs veh, PTTG1IP / RFU, CAPN2 / Fold change vs veh, CAPN2 / RFU, MED14 / Fold change vs veh, MED14 / RFU, SNORA58 / Fold change vs veh, SNORA58 / RFU, C1orf63 / Fold change vs veh, C1orf63 / RFU, LRRFIP1 / Fold change vs veh, LRRFIP1 / RFU, NDUFAF7 / Fold change vs veh, NDUFAF7 / RFU, SLC12A2 / Fold change vs veh, SLC12A2 / RFU, IBTK / Fold change vs veh, IBTK / RFU, ESF1 / Fold change vs veh, ESF1 / Fold change vs veh, TMEM50B / RFU, TAOK1 / Fold change vs veh, TAOK1 / RFU, ACBD3 / Fold change vs veh, ACBD3 / RFU, TMA16 / Fold change vs veh, TMA16 / RFU, RWDD3 / Fold change vs veh, RWDD3 / RFU, BCAT1 / Fold change vs veh, BCAT1 / RFU, EDEM3 / Fold change vs veh, EDEM3 / RFU, TMEM33 / Fold change vs veh, TMEM33 / RFU, WDR75 / Fold change vs veh, WDR75 / RFU, AHCTF1 / Fold change vs veh, AHCTF1 / RFU, TFRC / Fold change vs veh, TFRC / RFU, ZDHHC17 / Fold change vs veh, ZDHHC17 / RFU, NOM1 / Fold change vs veh, NOM1 / RFU, ARL8B / Fold change vs veh, ARL8B / RFU, ZBTB11 / Fold change vs veh, ZBTB11 / RFU, TAMM41 / Fold change vs veh, TAMM41 / RFU, KIAA1704 /// LOC100996395 / Fold change vs veh, KIAA1704 /// LOC100996395 / RFU, ING1 / Fold change vs veh, ING1 / RFU, TRMT61B / Fold change vs veh, TRMT61B / RFU, FUBP3 / Fold change vs veh, FUBP3 / RFU, TP53 / Fold change vs veh, TP53 / RFU, TNKS2 / Fold change vs veh, TNKS2 / RFU, ZFP14 / Fold change vs veh, ZFP14 / RFU, ACTR2 / Fold change vs veh, ACTR2 / RFU, PPP3R1 / Fold change vs veh, PPP3R1 / RFU, PIK3R1 / Fold change vs veh, PIK3R1 / RFU, HNRNPA1 / Fold change vs veh, HNRNPA1 / RFU, RNF170 / Fold change vs veh, RNF170 / RFU, ZNF28 / Fold change vs veh, ZNF28 / RFU, RNGTT / Fold change vs veh, RNGTT / RFU, OGT / Fold change vs veh, OGT / RFU, BRD1 / Fold change vs veh, BRD1 / RFU, MARS / Fold change vs veh, MARS / RFU, ZNF655 / Fold change vs veh, ZNF655 / RFU, FAHD1 / Fold change vs veh, FAHD1 / RFU, BDP1 / Fold change vs veh, BDP1 / RFU, LRRCC1 / Fold change vs veh, LRRCC1 / RFU, ARID1A / Fold change vs veh, ARID1A / RFU, ZNF146 / Fold change vs veh, ZNF146 / RFU, ZNF330 / Fold change vs veh, ZNF330 / RFU, GPN3 / Fold change vs veh, GPN3 / RFU, C9orf123 / Fold change vs veh, C9orf123 / RFU, N4BP2L2 / Fold change vs veh, N4BP2L2 / RFU, ARFIP1 / Fold change vs veh, ARFIP1 / RFU, FAM179B / Fold change vs veh, FAM179B / RFU, BCL10 / Fold change vs veh, BCL10 / RFU, UHRF1BP1L / Fold change vs veh, UHRF1BP1L / RFU, BET1 / Fold change vs veh, BET1 / RFU, CNOT2 / Fold change vs veh, CNOT2 / RFU, ZNF268 / Fold change vs veh, ZNF268 / Fold change vs veh, ZNF507 / RFU, DGCR2 / Fold change vs veh, DGCR2 / RFU, WDSUB1 / Fold change vs veh, WDSUB1 / Fold change vs veh, HSP90B1 /// MIR3652 / RFU, ADSS / Fold change vs veh, ADSS / RFU, GK / Fold change vs veh, GK / RFU, ZNF148 / Fold change vs veh, ZNF148 / RFU, TAF9 / Fold change vs veh, TAF9 / RFU, SLC1A5 / Fold change vs veh, SLC1A5 / RFU, SLMO2 / Fold change vs veh, SLMO2 / RFU, ABCC4 / Fold change vs veh, ABCC4 / RFU, LOC101060439 /// RAP1B / Fold change vs veh, LOC101060439 /// RAP1B / RFU, RFX7 / Fold change vs veh, RFX7 / RFU, GTPBP10 / Fold change vs veh, GTPBP10 / RFU, CNEP1R1 / Fold change vs veh, CNEP1R1 / RFU, BIVM-ERCC5 /// ERCC5 / Fold change vs veh, BIVM-ERCC5 /// ERCC5 / RFU, ILF3 / Fold change vs veh, ILF3 / RFU 11762660_at / Fold change /veh 11762660_at / RFU VCAN (11757783_s_at) / Fold change /veh VCAN (11757783_s_at) / RFU DDX43 (11728927_at) / Fold change /veh DDX43 (11728927_at) / RFU KRT8 (11758188_x_at) / Fold change /veh KRT8 (11758188_x_at) / RFU NKD1 (11759106_at) / Fold change /veh NKD1 (11759106_at) / RFU SRD5A1 (11742802_a_at) / Fold change /veh SRD5A1 (11742802_a_at) / RFU TPSAB1 /// TPSB2 (11721975_s_at) / Fold change /veh TPSAB1 /// TPSB2 (11721975_s_at) / RFU GSTM3 (11746129_a_at) / Fold change /veh GSTM3 (11746129_a_at) / RFU IL23R (11737362_x_at) / Fold change /veh IL23R (11737362_x_at) / RFU TMEM51 (11727254_a_at) / Fold change /veh TMEM51 (11727254_a_at) / RFU PIWIL2 (11732686_x_at) / Fold change /veh PIWIL2 (11732686_x_at) / RFU ORM1 (11744905_x_at) / Fold change /veh ORM1 (11744905_x_at) / RFU CCDC152 (11743942_at) / Fold change /veh CCDC152 (11743942_at) / RFU ECM1 (11717891_a_at) / Fold change /veh ECM1 (11717891_a_at) / RFU IL23R (11748794_a_at) / Fold change /veh IL23R (11748794_a_at) / RFU TNFAIP8L3 (11732012_x_at) / Fold change /veh TNFAIP8L3 (11732012_x_at) / RFU MBOAT4 (11741988_at) / Fold change /veh MBOAT4 (11741988_at) / RFU 11764193_at / Fold change /veh 11764193_at / RFU TMEM53 (11763286_at) / Fold change /veh TMEM53 (11763286_at) / RFU MAGEB2 (11727129_at) / Fold change /veh MAGEB2 (11727129_at) / RFU TMEM200A (11744735_a_at) / Fold change /veh TMEM200A (11744735_a_at) / RFU CCDC152 (11751479_a_at) / Fold change /veh CCDC152 (11751479_a_at) / RFU FAM211A (11726209_a_at) / Fold change /veh FAM211A (11726209_a_at) / RFU RGS16 (11746705_a_at) / Fold change /veh RGS16 (11746705_a_at) / RFU VCAN (11755009_s_at) / Fold change /veh VCAN (11755009_s_at) / RFU RHOB (11743442_s_at) / Fold change /veh RHOB (11743442_s_at) / RFU RGS16 (11720943_a_at) / Fold change /veh RGS16 (11720943_a_at) / RFU RGS16 (11720944_at) / Fold change /veh RGS16 (11720944_at) / RFU, VPS4B / Fold change vs veh, VPS4B / RFU, CREB1 / Fold change vs veh, CREB1 / RFU, DNAJC13 / Fold change vs veh, DNAJC13 / RFU, GNAQ / Fold change vs veh, GNAQ / RFU, CDK5R1 / Fold change vs veh, CDK5R1 / RFU, ZRANB3 / Fold change vs veh, ZRANB3 / RFU, CUL4A / Fold change vs veh, CUL4A / RFU, CCNY / Fold change vs veh, CCNY / RFU, UFL1 / Fold change vs veh, UFL1 / RFU, COG3 / Fold change vs veh, COG3 / RFU, DIAPH2 / Fold change vs veh, DIAPH2 / RFU, SKA2 / Fold change vs veh, SKA2 / RFU, AFF3 / Fold change vs veh, AFF3 / RFU, LMF1 / Fold change vs veh, LMF1 / RFU, IPO11 / Fold change vs veh, IPO11 / RFU, DFFB / Fold change vs veh, DFFB / RFU, FOXP1 / Fold change vs veh, FOXP1 / RFU, CARD8 / Fold change vs veh, CARD8 / RFU, STRN3 / Fold change vs veh, STRN3 / RFU, ADK / Fold change vs veh, ADK / RFU, RASSF2 / Fold change vs veh, RASSF2 / RFU, WIPF1 / Fold change vs veh, WIPF1 / RFU, LARP1B / Fold change vs veh, LARP1B / RFU, RASA1 / Fold change vs veh, RASA1 / RFU, RB1 / Fold change vs veh, RB1 / RFU, PPFIA1 / Fold change vs veh, PPFIA1 / RFU, MAT2A / Fold change vs veh, MAT2A / RFU, CCT5 / Fold change vs veh, CCT5 / RFU, WDR92 / Fold change vs veh, WDR92 / RFU, CUX1 / Fold change vs veh, CUX1 / RFU, TTC7A / Fold change vs veh, TTC7A / RFU, TMEM135 / Fold change vs veh, TMEM135 / RFU, DEPTOR / Fold change vs veh, DEPTOR / RFU, CPM / Fold change vs veh, CPM / RFU, DNAJB6 / Fold change vs veh, DNAJB6 / RFU, CACNA2D3 / Fold change vs veh, CACNA2D3 / RFU, DTX4 / Fold change vs veh, DTX4 / RFU, TFCP2 / Fold change vs veh, TFCP2 / RFU, GMCL1 /// GMCL1P1 / Fold change vs veh, GMCL1 /// GMCL1P1 / RFU, AEBP2 / Fold change vs veh, AEBP2 / RFU, SNHG1 /// SNORD22 /// SNORD25 /// SNORD26 /// SNORD27 /// SNORD28 /// SNORD29 /// SNORD31 / Fold change vs veh, SNHG1 /// SNORD22 /// SNORD25 /// SNORD26 /// SNORD27 /// SNORD28 /// SNORD29 /// SNORD31 / Fold change (Aza/veh), C12orf56 (ProbeSet 11735607_a_at) / Fold change (ACY-1035/veh), C12orf56 (ProbeSet 11735607_a_at) / Fold change (Aza/veh), FGFR1OP (ProbeSet 11751329_s_at) / Fold change (ACY-1035/veh), FGFR1OP (ProbeSet 11751329_s_at) / Fold change (Aza/veh), VPS36 (ProbeSet 11739960_a_at) / Fold change (ACY-1035/veh), VPS36 (ProbeSet 11739960_a_at) / RFU SYPL1 (11715823_x_at) / Fold change /veh SYPL1 (11715823_x_at) / RFU IGFBP7 (11715501_s_at) / Fold change /veh IGFBP7 (11715501_s_at) / RFU REEP3 (11722064_at) / Fold change /veh REEP3 (11722064_at) / RFU IGLL1 (11728026_x_at) / Fold change /veh IGLL1 (11728026_x_at): dose or concentration left out as unconfirmed. As to conditions: ProbeSet 11725902_s_at; LIST D.

Consider `Nc1ncn([C@@H]2O[C@H](CO)[C@@H](O)[C@H]2O)c(=O)n1` [azacitidine], for which the “Fold change vs veh, TMEM135” value was determined as 0.57.

These data come from paper PMC5218480 (PLoS ONE, 2017).
